Measurements: patent US12433954B2, “Methods of activating anti-CD19 chimeric antigen receptor (CAR) T cells using amphiphilic ligand conjugates comprising CAR-targeting protein sequence motifs” (Massachusetts Institute of Technology, priority 2020, dated 2025)
Bridge positions count the residues as written; N and C are the ends. Ends that are not written are not given here. Peptide text beside a SMILES is read from it. * marks the point of attachment. Biotin = O=C1N[C@H]2[C@H](CS[C@H]2CCCCC(=O)*)N1

Key:
FMC63 scFv = assay: Dissociation kinetics of FMC63 scFv from yeast clones (flow cytometry); assay type: binding, mouse; conditions: yeast clones labeled, washed, incubated 0-72 hours
Method: The yeast clones were labeled with the scFv, washed, and incubated for 0-72 hours as indicated prior to analysis.
The dissociation kinetics following binding of the mimotopes to FMC63 were also investigated. […] The yeast were then washed, and incubated for 0-72 hours prior to analysis of the degree of FMC63 scFv labeling by flow cytometry.

FMC63 CAR T cells = assay: In vivo CAR T cell proliferation in lymph nodes after amph-mimotope vaccination (cell trace violet dilution); design: species or system mice; conditions: inguinal LNs 48 hours post-vaccination; s.c. tail base with 25 μg cyclic-di-GMP; 10 ug monovalent or 20 ug bivalent
Method: FIG. 18A depicts a timeline for administration of CD45.1+ donor FMC63 CAR T cells to CD45.2+ recipient mice on Day 0, followed by administration of amph-mimotope or bivalent amph-mimotope on Day 1, and analysis of CAR T cell proliferation in lymph nodes harvested on Day 3 measured by cell trace violet dilution.
FIG. 18B provides histograms measuring the proliferation of FMC63 CAR T cells isolated from mice on Day 3 as depicted in FIG. 18A. The mice were administered amph-mimotope containing a mimotope with the sequence set forth in SEQ ID NO: 128 or 129 (Amph-K-A1 or Amph-K-C2 respectively) or the bivalent mimotopes depicted in FIG. 17C (amph-bi-F12-peg8 or amph-bi-F12-peg4). Control mice were administered no amph-mimotope.
CD45.1^+ donor FMC63 CAR T cells were prepared as described in Example 3 and labeled with cell trace violet according to manufacturer's protocol. 2×10^6 CAR T cells were administered into CD45.2^+ recipient mice via tail vein injection on Day 0. The following day, recipient mice were vaccinated by subcutaneous injection at the tail base with the following vaccine formulation: • (i) 10 ug of monovalent amph-mimotope (Amph-K-A1 or Amph-K-C2)+25 μg of cyclic-di-GMP in 1×PBS; or • (ii) 20 ug of amph-Bi-F12-mimotope (PEG4 or PEG8)+25 μg of cyclic-di-GMP in 1×PBS. […]

FMC63 IgG = assay: ELISA of N-terminally biotinylated F12 variants on streptavidin plate, binding to FMC63 IgG; design: species or system mouse; conditions: read-out: Kd (nM), FMC63 binding affinity of F12 variants with N-terminal flanking residues
[1] = Micelle stability of lipid-oligonucleotide conjugates in presence of serum; assay type: physicochemical; conditions: for percentage of intact micelles: micelles formed in aqueous solution, in the presence of serum (FBS); for micelle stability on increasing number of guanines: in the presence of serum, compared with lipo-G6T4-CG
Method: For example, in certain embodiments, a plurality of lipid conjugates is allowed to spontaneously form micelles in aqueous solution. The micelles are incubated with albumin, or a solution including albumin such as Fetal Bovine Serum (FBS). Samples can be analyzed, for example, by ELISA, size exclusion chromatography or other methods to determine if binding has occurred. Lipid conjugates can be selected as lymph node-targeting conjugates if in the presence of albumin, or a solution including albumin such as Fetal Bovine Serum (FBS), the micelles dissociate and the lipid conjugates bind to albumin as discussed above.
In certain embodiments, the linker is one or more guanines, for example between 1-10 guanines. It has been discovered that altering the number of guanines between a cargo such as a CpG oligonucleotide, and a lipid tail controls micelle stability in the presence of serum proteins. Therefore, the number of guanines in the linker can be selected based on the desired affinity of the conjugate for serum proteins such as albumin. When the cargo is a CpG immunostimulatory oligonucleotide and the lipid tail is a diacyl lipid, the number of guanines affects the ability of micelles formed in aqueous solution to dissociate in the presence of serum: 20% of the non-stabilized micelles (lipo-G0T10-CG) (SEQ ID NO: 138) were intact, while the remaining 80% were disrupted and bonded with FBS components.

FMC63 IgG antibody = assay: Alanine scanning mutagenesis, flow cytometry binding to FMC63 IgG; design: species or system mouse; conditions: yeast stained with 5 μM FMC63 IgG antibody
Method: FIG. 11 provides a graph showing flow cytometry analysis of alanine scanning mutagenesis for […] (SEQ ID NO: 16) where each amino acid position was mutated to an alanine, or additional alanine residues (one or two) were added. Flow cytometry analysis was performed to evaluate binding to the FMC63 IgG antibody.
To determine the effect of amino acid position on binding to FMC63, an alanine mutagenesis experiment was performed were each amino acid was mutated to alanine and binding to FMC63 was assessed. Specifically, a representative mimotope, […] (SEQ ID NO: 16), was mutated at each amino acid position to generate an alanine (SEQ ID NOs: 54-63) (Table 7). To assess the tolerance of additional alanine residues, one alanine or two alanine residues were inserted between the two cysteine residues (SEQ ID NOs: 52 and 53) to determine the impact the loop structure had on mimotope binding to FMC63. To generate mutations, two complementary oligos with the codon replaced at the desired site were denatured at 95° C. and annealed by slow cooling to 25° C. (decreasing by 0.5° C./second). The annealed oligos were treated with T4 PNK (T4 Polynucleotide Kinase) to add a terminal phosphate, and then ligated into digested pCT-CON2 vector. Positive clones having the correct oligo inserted were tested and transformed into competent EBY100 yeast cells. […]

[2] = system: FMC63 anti-hCD19 CAR-T cells; assay: IFNγ secretion of CAR-T cells co-cultured with amph-mimotope coated K562 cells (ELISA); assay type: cell-based; conditions: K562 coated with 10 μM amph-mimotope, E:T 10:1, 24 hours; compared to amphiphile only control
Method: ID NO: 5) at 10 μM and incubated at 37° C. for 30 minutes. The labeling reaction was stopped by pelleting cells and washing with PBS. To mimic antigen presenting cells in lymph nodes, K562 cells were decorated with amph-mimotope, and then co-cultured at an effector to target (E:T) ratio of 10:1 with FMC63 expressing CAR-T cells (hCD19-CAR; SEQ ID NO: 78) for 24 hours. The hCD19-CAR was generated in part from a previously reported CAR (Pegram, H., et al. (2012) Blood 119:18 (4133-4141) and is composed of a human CD8 signal peptide (SEQ ID NO: 87), FMC63 scFV (SEQ ID NO: 70), murine CD8 hinge (SEQ ID NO: 74), a murine CD8 transmembrane domain (SEQ ID NO: 75), a murine CD28 costimulatory domain (SEQ ID NO: 76) and a murine CD3ζ intracellular domain (SEQ ID NO: 77). The overall CAR is provided in SEQ ID NO: 78. After co-culture, cells were pelleted at 2,000×g for 5 minutes, and the supernatant was harvested for IFNγ ELISA and processed following the manufacturer's protocol (Human IFNγ ELISA MAXTM Deluxe (Biolegend)).

FMC63 = FMC63 binding of mimotope-expressing yeast after DTT treatment (flow cytometry); design: species or system mouse; conditions: DTT 0.01-10 mM, 30 minutes, room temperature; yeast-displayed
Method: To determine the formation of an intra-peptidyl disulfide bridge formed by the two Cys residues, mimotope expressing yeast were treated in reducing conditions and binding of the mimotope to FMC63 IgG was measured. […] Similarly, control cells expressing Aga2p (connected to the yeast surface by disulfide bridge) were treated with DTT. Following treatment, cells were labelled with biotinylated Aga2p or FMC63 and binding was measured by flow cytometry. At mild reducing conditions, Aga2p was maintained on the yeast surface while mimotope binding to FMC63 was abolished (FIG. 6). The inhibition of mimotope binding to FMC63 following treatment with a reducing agent reaffirms the formation of the disulfide bond and its importance for binding.

FMC63 IgG antibody, sequence (as listed by the source): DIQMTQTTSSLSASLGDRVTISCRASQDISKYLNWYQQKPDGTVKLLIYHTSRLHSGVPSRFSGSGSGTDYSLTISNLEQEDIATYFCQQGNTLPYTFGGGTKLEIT
FMC63 IgG antibody, sequence (as listed by the source): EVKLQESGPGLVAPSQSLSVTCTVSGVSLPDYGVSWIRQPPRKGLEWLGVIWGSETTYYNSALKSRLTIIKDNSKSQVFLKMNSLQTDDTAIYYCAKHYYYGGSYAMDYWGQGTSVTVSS
FMC63 scFv, sequence (as listed by the source): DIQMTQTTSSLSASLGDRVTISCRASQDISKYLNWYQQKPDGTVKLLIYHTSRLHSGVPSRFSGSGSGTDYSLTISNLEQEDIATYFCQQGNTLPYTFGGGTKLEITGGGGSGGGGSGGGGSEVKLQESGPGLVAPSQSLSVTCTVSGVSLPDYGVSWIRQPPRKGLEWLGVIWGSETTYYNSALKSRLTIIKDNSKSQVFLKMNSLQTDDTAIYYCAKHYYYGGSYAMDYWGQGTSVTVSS

Compound: K-A1 (PRKHSGRICPWNCKELDNPPFIFGNR; Synthetic FMC63 mimotope (A1))
- time for which FMC63 scFv labeling is retained after wash (FMC63 scFv): ≥ 72 h

Compound: Amph-K-C2 (GGGSASRICPWNCKELPSPPRIFGNR; cysteine pairing not given here; also: amphiphile lipid conjugate, site not given here)
- proliferation of CAR T cells in vivo (cell violet dilution) (FMC63 CAR T cells): observed

Compound: CC[C@H](C)[C@H](NC(=O)[C@H](CCCNC(=N)N)NC(=O)[C@H](CO)NC(=O)[C@H](C)NC(=O)[C@H](CO)NC(=O)CCCC[C@@H]1SC[C@@H]2NC(=O)N[C@@H]21)C(=O)N[C@H]1CSSC[C@@H](C(=O)N[C@@H](CCCCN)C(=O)N[C@@H](CCC(=O)O)C(=O)N[C@@H](CC(C)C)C(=O)O)NC(=O)[C@H](CC(N)=O)NC(=O)[C@H](Cc2c[nH]c3ccccc23)NC(=O)[C@@H]2CCCN2C1=O [SEQ ID NO: 95] (Biotin-SASRICPWNCKEL-OH; disulfide 6-10)
- Kd (FMC63 IgG): 0.147 nM

Compound: CC[C@H](C)[C@H](NC(=O)[C@H](CCCNC(=N)N)NC(=O)[C@H](CO)NC(=O)[C@H](C)NC(=O)[C@H](CO)NC(=O)CNC(=O)CNC(=O)CNC(=O)CCCC[C@@H]1SC[C@@H]2NC(=O)N[C@@H]21)C(=O)N[C@H]1CSSC[C@@H](C(=O)N[C@@H](CCCCN)C(=O)N[C@@H](CCC(=O)O)C(=O)N[C@@H](CC(C)C)C(=O)O)NC(=O)[C@H](CC(N)=O)NC(=O)[C@H](Cc2c[nH]c3ccccc23)NC(=O)[C@@H]2CCCN2C1=O [SEQ ID NO: 96] (Biotin-GGGSASRICPWNCKEL-OH; disulfide 9-13)
- Kd (FMC63 IgG): 0.141 nM

Compound: lipo-G0T10-CG (DNA TTTTTTTTTTCG; DNA, backbone and methylation of C not given here; lipid conjugate)
- percentage of intact micelles [1]: 20%

Compound: lipo-G2T8-CG (DNA GGTTTTTTTTCG; DNA, backbone and methylation of C not given here; lipid conjugate)
- percentage of intact micelles [1]: 36%

Compound: RLCPWSAACREL (Synthetic FMC63 Mimotope Mutant) [SEQ ID NO: 52]
- mimotope binding to FMC63 of RLCPWSCREL variants (FMC63 IgG antibody): abolished

Compound: lipo-G10T0-CG (DNA GGGGGGGGGGCG; DNA, backbone and methylation of C not given here; lipid conjugate)
- micelle stability on increasing number of guanines [1]: did not further enhance micelle stability

Compound: lipo-G6T4-CG (DNA GGGGGGTTTTCG; DNA, backbone and methylation of C not given here; lipid conjugate)
- percentage of intact micelles [1]: 90%

Compound: RLCPWSACREL (Synthetic FMC63 Mimotope Mutant) [SEQ ID NO: 53]
- mimotope binding to FMC63 of RLCPWSCREL variants (FMC63 IgG antibody): abolished

Compound: lipo-G8T2-CG (DNA GGGGGGGGTTCG; DNA, backbone and methylation of C not given here; lipid conjugate)
- micelle stability on increasing number of guanines [1]: did not further enhance micelle stability

Compound: amph-mimotope (RHCPWNCSLL; SEQ ID NO: 5) (cysteine pairing not given here; also: amphiphilic lipid tail conjugated, site not given here)
- CAR-T cell activation measured by IFNγ secretion [2]: significantly activated

Compound: lipo-G4T6-CG (DNA GGGGTTTTTTCG; DNA, backbone and methylation of C not given here; lipid conjugate)
- percentage of intact micelles [1]: 73%

Compound: RHCPWNCSLL [Clone A1]
- mimotope binding to FMC63 after DTT (FMC63): abolished
